Data on 3 compounds can be found in paper PMC12473028, “Isolation and Biological Evaluation of Human Tyrosinase Inhibitors from the Fruit of Xanthium strumarium L” (Molecules, 2025).

Holding throughout (assay): L-DOPA oxidation assay in MM418C1 cell lysate, single dose […] ([…] activity remaining)
What all share (conditions): read-out: % activity remaining at 1 mg/mL

Test [1] concerns the target T1, human tyrosinase (hsTYR) (Homo sapiens, UniProt P14679).
T1 construct: gene TYR
T1 sequence (P14679 19-529): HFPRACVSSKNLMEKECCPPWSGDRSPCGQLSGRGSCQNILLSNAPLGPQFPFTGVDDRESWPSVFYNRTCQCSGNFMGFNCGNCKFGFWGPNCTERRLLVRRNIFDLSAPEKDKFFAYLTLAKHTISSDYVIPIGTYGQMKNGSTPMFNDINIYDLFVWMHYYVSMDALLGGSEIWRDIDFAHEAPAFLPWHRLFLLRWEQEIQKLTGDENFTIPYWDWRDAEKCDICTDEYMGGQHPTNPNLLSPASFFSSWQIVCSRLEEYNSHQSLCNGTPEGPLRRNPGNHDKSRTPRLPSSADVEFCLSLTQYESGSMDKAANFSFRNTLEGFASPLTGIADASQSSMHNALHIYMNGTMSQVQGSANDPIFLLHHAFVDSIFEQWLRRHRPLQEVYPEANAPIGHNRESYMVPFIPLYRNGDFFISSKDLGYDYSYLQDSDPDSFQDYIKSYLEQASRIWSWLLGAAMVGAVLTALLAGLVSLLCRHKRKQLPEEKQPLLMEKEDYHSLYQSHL
In kind it is cell-free (cell lysate).

The target of test [2] is T1, human tyrosinase (hsTYR). In kind it is cell-free.
The target in test [3] is T1, human tyrosinase (hsTYR). In kind it is biochemical.

Where two headings read alike, the source gives them in different places.

On to `O=C(/C=C/c1ccc(O)c(O)c1)O[C@@H]1C[C@](O)(C(=O)O)C[C@@H](O)[C@H]1O` [compound 7, 5-caffeoylquinic acid], for which the remaining activity at 1000 µg/mL on human tyrosinase (hsTYR) [1] amounted to 68.1%.

On to `CC1(C)C(CO[C@@H]2O[C@H](CO)[C@@H](O)[C@H](O)[C@H]2O)=CC(=O)C2=C1SCC(=O)N2` [compound 9, xanthiside], for which the remaining activity at 1000 µg/mL on human tyrosinase (hsTYR) [2] is 76.9%. Consider `O=C(/C=C/c1ccc(O)c(O)c1)O[C@@H]1CC(OC(=O)/C=C/c2ccc(O)c(O)c2)(C(=O)O)C[C@@H](O)C1O` (stereo partly drawn) [compound 11, 1,3-dicaffeoylquinic acid], for which the remaining activity at 1000 µg/mL on human tyrosinase (hsTYR) [3] came to 78.1%.
